Columns and labels:
[1] = system: allogeneic heart transplants; experiment: Histology, immunohistochemistry (ED1) and rejection score of allogeneic heart transplants 3 days after transplantation; assay type: in vivo, rat
Description: Transplanted hearts were removed under deep anesthesia, quickly blotted free of blood, weighed, and then processed as needed for histology and immunohistochemistry. The organs were cut into 1-mm slices and either immersion-fixed in 4% formaldehyde in phosphate buffered saline (PBS) pH 7.35, (PBS: 99 mM NaH2PO4, 108 mM NaH2PO4 and 248 mM NaCl) for 24 h or fixed in methacarn for 8 h and embedded in paraffin. Light microscopy was performed on 3 μm sections stained by periodic acid-Schiff or Goldner-Elastica. Light microscopy was performed on allogeneic heart transplants 3 days after transplantation.
The ED1 monoclonal antibody (Serotec/Camon) was used on methacarn fixed paraffin embedded tissue (3 μm) to stain for rat monocytes/macrophage cells. An alkaline phosphatase anti-alkaline phosphatase detection system was used for visualization (Dako). Controls that omit the first or second antibody for each section were performed for negative staining. […]
Mild acute rejection (score: 1) was characterized by a sparse interstitial mononuclear infiltrate often accentuated in perivascular spaces. […] The rejection score was calculated for every tissue block and an average score was calculated from the different blocks for every transplanted heart as rejection processes tended to be focal.

[2] = system: recipient Lewis rats given donor ACI rat grafts; experiment: Heterotopic heart transplant rejection model (ACI donor, Lewis recipient); assay type: in vivo; conditions: cyclosporin A only
Excerpt: In this assay an increase in allograft survival time corresponds to a decrease in heart transplant rejection in the recipient Lewis rats given donor ACI rat grafts.
Adult male, specific pathogen-free ACI (RT1a) and Lewis (RT1l) rats (Charles River, Boston, Mass.) weighing 200 to 250 g were used as donors and recipients, respectively, in these studies. Vascularized cardiac allografts were heterotopically transplanted into the abdomen of recipient rats using a modification (Nisco, S. et al., (1994), supra) of the technique of Ono and Lindsay (Ono, K. et al., (1969), supra). […] Abdominal allografts were palpated on a daily basis to assess graft function, and rejection was deemed complete when palpable ventricular contractions ceased.
The transplanted hearts were evaluated daily for signs of rejection over the course of the study.

For cyclosporin A, the “immunohistology for ED1-positive monocytes/macrophages in allogeneic heart transplants” value [1] was “inflammatory cell infiltrate was focal and was composed primarily of ED-1 positive cells”, the “mean allograft survival time” value ([2]; 2.5 mg/kg by gavage once per day for duration of study) was 7.3±0.5 days and the “mean allograft survival time” value ([2]; 10 mg/kg by gavage once per day for four days) was 12.9±0.7 days.

— US6740636B2 (priority 2000, dated 2004)
